Source: patent publication US7282215B2, “Supports for photosensitizer formulations” (The University of British Columbia, priority 2000, dated 2007)
Marks after values point to notes of the source that are not given here.

What was measured:
[1] = Drug loading of liposomal versus 10% P123 formulations; format: physicochemical; conditions: prepared at 2 mg/ml
Procedure: 5 mg drug and lipids (40% EPG in DMPC) are combined in CH2Cl2 at a drug to lipid ratio of 1:10 w/w in 250 ml round bottom flask. The maximum concentration of drug in solvent is 2 mg/ml. CH2Cl2 is removed rapidly as described in Example 5. The resulting thin film is hydrated with 2.5 ml lactose solution (9.5% w/v) using hand swirling with glass beads at 40° C. Extrusion using Model 4T (Lipex Biomembranes Inc. B.C., Canada) is carried out with the thermostat set at 40° C. The multilamellar vesicles (MLVs) arising from hydration steps of the liposomal formulation were also examined under the microscope. MLVs are successively extruded 5 times through each of the 400 nm, 200 nm and 100 nm polycarbonate membranes (Nuclepore PC, Costar). Extruded samples were diluted 1:100 in PBS (pH 7.4) and the absorbance determined at 690 nm wavelength.
In this experiment liposomal and block copolymer (micellar) photosensitizer formulations of A- and B-ring compounds of EA6 and B3 were compared. Each of the photosensitizer samples was prepared at a final drug concentration of 2 mg/ml. The block copolymer P123, and the liposomal formulations were prepared as described in the Examples 5 and 6, respectively.

[2] = system: L1210 cells; experiment: In vitro cellular uptake of photosensitizer formulations; format: cell-based; conditions: 3 μg/ml, DMEM 10% FBS, B-B3 in P123 copolymer, BPD-MA liposomal
Procedure: The protocol for setting up the cell cultures and conditions for the cellular assay essentially followed Richter et al. (Proc. SPIE, 2078: 293-304, September 1993). L1210 cells in DMEM and 10% FBS (single experiment, 3 sets) were incubated with the formulations at a concentration of 3 μg/ml and examined for uptake in the cells over time. Cells were recovered by centrifugation, the pellet briefly rinsed, and the cells lysed by freeze thawing in the presence of 2% Triton X-100®. An equal volume of methanol was added and fluorescence was read at 694 nm (λex 440 nm).

[3] = system: L1210 cells; experiment: In vitro phototoxicity (MTT assay after light exposure); format: cell-based
Procedure: Exposure to drugs was carried out in the presence and absence of fetal calf serum (FCS) as a model to study transfer of drug to cells in vivo. […] A suspension of L1210 cells was prepared and exposed to various drug formulations (drug concentrations ranging from 0-50 ng/ml) either in the absence or presence of 10% fetal calf serum (FCS). One hour later, the drug was removed by pelleting the cells by centrifugation. The pellet was briefly washed with 1 ml DME and resuspended in 5% FCS/DME. 100 μl of the cell suspension was aliquoted into 6 wells of a 96 well plate, and the plate exposed to light at 10 J/cm^2. Viability was determined 24 h post exposure using the MTT assay (Mosmann, J. Immunol. Meth. 65:55-63, 1983).

[4] = system: M1 rhabdomyosarcoma tumor; experiment: PDT tumor recurrence in tumor mouse model; format: in vivo, DBA/2 mouse
Procedure: Photosensitizer formulations were prepared in 10% w/v Pluronics as described in Example 4. BPD-MA was formulated in F127. B-ring compounds B-EA6 and B-B3, were prepared in P123 due to insufficient drug loading in F127. Liposomal BPD-MA formulation was Verteporfin™ and B-ring compounds were formulated in the same lipid composition. Where DMSO/plasma preparations were made, the DMSO dissolved drug was added directly to mouse plasma and the drug association with different plasma components was observed.
In these experiments the tumor model used was the DBA/2 mouse (males) inoculated intradermally with M1 rhabdomyosarcoma tumor cells (M1, ATCC. When tumors reached a diameter of 4-6 mm, the mice (n=10, unless other wise stated) were treated with photodynamic therapy (PDT). PDT involved intravenous injection of the formulated drug in 0.2 mL volume of PBS. This was followed by exposure of the tumor region to laser light (Argon pumped dye laser (5W), 690 nm, 50J/cm2) 15 min later. Animals were then monitored for tumor recurrence over a 20 day period post treatment.

[5] = Drug loading attainable in 10% P123 (summary); format: physicochemical
Procedure: In the Example section below, formulation of the following A-ring compounds: BPD-MA, A-EA6, A-B3; B-ring compounds; B-EA6, and B-B3; and other photosensitizers such as dihydroxychlorins and pyropheophorbides, with P123 illustrate the versatility of this particular block copolymer. This includes A-ring compounds such as BPD-MA where block copolymers could be used to formulate an alternative product to a concentration as high as 4 mg/ml in 10% P123, and also A-EA6 and A-B3, all of which formulate very readily. B-ring compounds have lower drug loading characteristics, but concentrations of approximately 1.8 mg/ml are typical for B-B3, and lower for B-EA6. A wide range of other compounds e.g. pyropheophorbides and various dihydroxychlorins also formulate with ease to give final formulations at 2 mg/ml in 10% P123 in non-optimized systems. Therefore both the drug loading, and stability could be improved further by adjustments to composition, pH, and/or methodology of formulation.

[6] = BPD-MA/F127 deposited on lactose: hydration and 0.2 μm filtration; format: physicochemical; conditions: 5% w/v and 10% w/v F127 deposited on lactose, hydrated in water
Procedure: In this experiment the deposition of the photosensitizer BPD-MA with the block copolymer Pluronic® F127 onto the sugar lactose was examined. Formulations containing 5% (w/v) and a 10% (w/v) F127 were tested. 0.5 g lactose and 10 mg BPD-MA were added to two rotary evaporation flasks. A stock solution of […] F127 was prepared in CH2Cl2. 1.25 ml (for 5% w/v) and 2.5 ml (for 10% w/v) F127 stock solution was added to each flask. The final volume in each flask was made up to 5.0 ml with CH2Cl2 and the components mixed to ensure complete dissolution. The solvent was removed by rotary evaporation at 50° C., and the flask left under vacuum for a further 15 min at 23° C. Micro-thin film deposits were scraped from the walls and hydrated in 5 ml water at 50° C. The formulations were filtered twice using 0.2 μm syringe filters (Acrodisc, polysulphone).

[7] = Carrier Liposomal, −FCS, 1 h drug, light 10 J/cm^2, MTT 24 h
[8] = Liposomal, 1.0 mg/kg i.v., 690 nm 50J/cm2 15 min later, Day 7

For `C=Cc1c(C)c2cc3nc(cc4[nH]c(cc5nc(cc1[nH]2)C1(C)C5=CC=C(C(=O)O)C1C(=O)OC)c(C)c4CCC(=O)OC)C(CCC(=O)OC)=C3C` (stereo not shown) [B-B3], the “Drug loading, P123” value ([1]; Pluronic P123 10% weight/volume) was 1.24 mg/mL, the “Drug loading, Liposome” value ([1]; liposomal formulation) was “Very low” and the “Incubation time to 50% uptake level” value [2] was “close to ‘zero’ incubation time”. For the same compound, the “Incubation time to peak / saturation of uptake” value [2] was “around 20 min”, the LD50 ([3]; Carrier Copolymer (P123), +FCS (10%)) was 16.6* ng/ml and the LD50 ([3]; Carrier Copolymer (P123), −FCS) was 0.68* ng/ml. It also gave an LD50 ([3]; Carrier DMSO, +FCS (10%)) of 37.0 ng/mL, an LD50 ([3]; Carrier DMSO, −FCS) of 7.2 ng/mL and an LD50 ([3]; Carrier Liposomal, +FCS (10%)) of 30.0 ng/mL. The LD50 [3, 7] was 3.0 ng/mL, the “Percent (%) Mice Tumor Free” value [4, 8] was 0^2% and the “Percent (%) Mice Tumor Free” value ([4]; Pluronic P123, 1.0 mg/kg, Day 7) was 100%. For the same compound, the “Percent (%) Mice Tumor Free” value ([4]; Pluronic P123, 1.0 mg/kg, Day 14) was 80%, the “Percent (%) Mice Tumor Free” value ([4]; Pluronic P123, 1.0 mg/kg, Day 20) was 60% and the “Percent (%) Mice Tumor Free” value ([4]; Pluronic P123, 1.2 mg/kg, Day 7, n = 3) was 100^3%. For the same compound, the “Percent (%) Mice Tumor Free” value ([4]; Pluronic P123, 1.2 mg/kg, Day 14, n = 3) was 67^3%, the “Percent (%) Mice Tumor Free” value ([4]; Pluronic P123, 1.2 mg/kg, Day 20, n = 3) was 67^3% and the “Percent (%) Mice Tumor Free” value ([4]; Pluronic P123, 1.25 mg/kg, Day 7) was 100%. The “Percent (%) Mice Tumor Free” value ([4]; Pluronic P123, 1.25 mg/kg, Day 14) was 100%, the “Percent (%) Mice Tumor Free” value ([4]; Pluronic P123, 1.25 mg/kg, Day 20) was 80% and the “PDT efficacy in tumor model” value ([4]; plasma /DMSO preparation) was “completely ineffective”. The Formulated drug concentration [5] was “approximately 1.8 mg/ml”.

With `C=Cc1c(C)c2cc3nc(cc4[nH]c(cc5nc(cc1[nH]2)C(C)=C5CCC(=O)O)c(CCC(=O)OC)c4C)[C@@]1(C)C3=CC=C(C(=O)OC)[C@H]1C(=O)OC` [BPD-MA, benzoporphyrin derivative mono-acid-ring A, reference compound] the “Incubation time to 50% uptake level” value [2] was “approximately 5 min”, the “Incubation time to peak / saturation of uptake” value [2] was 30 min and the LD50 ([3]; Carrier Liposomal, +FCS (10%)) was 38.0 ng/mL. For the same compound, the LD50 [3, 7] was 4.0 ng/mL, the “Percent (%) Mice Tumor Free” value [4, 8] was 100% and the “Percent (%) Mice Tumor Free” value ([4]; Liposomal, 1.0 mg/kg, Day 14) was 100%. For the same compound, the “Percent (%) Mice Tumor Free” value ([4]; Liposomal, 1.0 mg/kg, Day 20) was 30%, the “Percent (%) Mice Tumor Free” value ([4]; Pluronic F127, 1.0 mg/kg, Day 7) was 100% and the “Percent (%) Mice Tumor Free” value ([4]; Pluronic F127, 1.0 mg/kg, Day 14) was 60%. For the same compound, the “Percent (%) Mice Tumor Free” value ([4]; Pluronic F127, 1.0 mg/kg, Day 20) was 60%, the “Drug loss on filtration through 0.2 μm filters” value [6] was “no drug loss” and the Formulated drug concentration [5] was at most 4 mg/mL.
